Measurements taken from patent US12185719B2, “Mixture of a folcysteine-based biostimulant and an agrotoxic substance of interest resulting in a quantitatively, qualitatively and time-related result-potentiating action as observed in an agricultural crop of a plant of interest” (priority 2017, dated 2025).

Legend:
[1] = test system: Tetranychus urticae; experiment: Laboratory test of mite control (Unesp, Jaboticabal); assay type: in vivo; conditions: dose 30 g-mL/100 L, lab conditions; for Mite control (%) 1 DFA: 1 day following application; for Mite control (%) 2 DFA: 2 days following application; for Mite control (%) 3 DFA: 3 days following application; for Mite control (%) 4 DFA: 4 days following application; for Mite control (%) 7 DFA: 7 days following application
Description: Application of miticide propargite: application to control mites in lab conditions, performed by Unesp in Jaboticabal, SP. Quantitative (control) results are described in table 3. Assessments were made of the plant treated with miticide propargite against the witness plant (untreated).
Application of miticide abamectin: application to control mites in lab conditions, performed by Unesp in Jaboticabal, SP. Quantitative (control) results are described in Chart 4. Assessments were made of the plant treated with miticide abamectin against the witness plant (untreated).
Example 5: Laboratory Test Performed by Unesp in Jaboticabal, SP to Measure Mite Control, Specifically Control of Tetranychus Urticae with 4 Repetitions and 4 Treatments
The first (treatment 1) is a sample of the plant with no treatment (Witness). The second treatment is a sample treated with Folcysteine alone (treatment 2). The third treatment is a plant sample treated only with the agrotoxic of interest, miticide AI4 (based on propargite), identified as treatment 3, and the fourth treatment used a folcysteine-based biostimulant and an agrotoxic of interest, miticide AI4 (propargite-based), identified as treatment 4, applied under laboratory conditions. See the results in the following table:
Example 6: Laboratory Test Performed by Unesp in Jaboticabal, SP to Measure Mite Control, Specifically Control of Tetranychus Urticae with 4 Repetitions and 4 Treatments
The first (treatment 1) is a sample of the plant with no treatment (Witness). The second is a sample treated with Folcysteine alone (treatment 2). The third treatment is a plant sample treated only with the agrotoxic of interest, miticide AI5, and the fourth treatment uses a blend of folcysteine-based biostimulant and an agrotoxic of interest, miticide AI5 (abamectin-based), identified as treatment 4, applied under laboratory conditions.

[2] = test system: corn; assay type: in vivo; conditions: dose 1.50 kg-l/ha

Row | Compound | Mite control (%) 1 DFA [1] [%] | Mite control (%) 2 DFA [1] [%] | Mite control (%) 3 DFA [1] [%] | Mite control (%) 4 DFA [1] [%] | Mite control (%) 7 DFA [1] [%] | Productivity Index ([2]; herbicide alone = 100) | Weight of 1,000 grains Index ([2]; herbicide alone = 100) | Productivity ([2]; spraying volume 300 l/ha) [b kg/ha] | Weight of 1,000 grains ([2]; spraying volume 300 l/ha) [a g]
1 | C#CCOS(=O)OC1CCCCC1Oc1ccc(C(C)(C)C)cc1 (centres unmarked) [Propargite, propargite] | 59 | 63 | 70 | 77 | 98 | – | – | – | –
2 | CP(=O)(O)CCC(N)C(=O)O.N (centres unmarked) [ammonium glufosinate] | – | – | – | – | – | 100 | 100 | 7.142 | 25.89
3 | abamectin | 20 | 20 | 20 | 45 | 62 | – | – | – | –
